Source: PubChem BioAssay (NCI)
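Five concentrations, 48 hours, 96-well plates. GI50 marks 50% less growth. The concentration for full growth arrest is given as TGI.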

Experiments:
Assay in all cases: inhibition of tumour cell growth, NCI panel, 48 h
[1] = tested on: HS 578T breast
[2] = tested on: BT-549 breast
[3] = tested on: EKVX NSCLC
[4] = tested on: HCT-116 colon
[5] = tested on: HOP-62 NSCLC
[6] = tested on: TK-10 renal
[7] = tested on: UACC-62 melanoma
[8] = tested on: MALME-3M melanoma
[9] = tested on: SK-MEL-5 melanoma
[10] = tested on: MCF7 breast
[11] = tested on: SN12C renal
[12] = tested on: MDA-MB-231 breast
[13] = tested on: NCI/ADR-RES ovarian
[14] = tested on: UACC-257 melanoma
[15] = tested on: 786-0 renal
[16] = tested on: COLO 205 colon
[17] = tested on: NCI-H226 lung
[18] = tested on: SW-620 colon
[19] = tested on: NCI-H522 lung
[20] = tested on: DU-145 prostate
[21] = tested on: HT29 colon
[22] = tested on: HL-60(TB) leukemia
[23] = tested on: OVCAR-3 ovarian
[24] = tested on: SK-MEL-2 melanoma
[25] = tested on: KM12 colon
[26] = tested on: A549 NSCLC
[27] = tested on: CAKI-1 renal
[28] = tested on: SF-295 CNS
[29] = tested on: RPMI-8226 leukemia
[30] = tested on: OVCAR-8 ovarian
[31] = tested on: SR leukemia
[32] = tested on: SF-539 CNS
[33] = tested on: MDA-MB-468 breast
[34] = tested on: U251 CNS
[35] = tested on: SK-OV-3 ovarian
[36] = tested on: RXF 393 renal
[37] = tested on: OVCAR-4 ovarian
[38] = tested on: MDA-MB-435
[39] = tested on: NCI-H460 lung
[40] = tested on: SF-268 CNS
[41] = tested on: SNB-75 CNS
[42] = tested on: IGROV1 ovarian
[43] = tested on: PC-3 prostate
[44] = tested on: OVCAR-5 ovarian
[45] = tested on: SK-MEL-28 melanoma
[46] = tested on: M14 melanoma
[47] = tested on: SNB-19 CNS
[48] = tested on: CCRF-CEM leukemia
[49] = tested on: UO-31 renal
[50] = tested on: HOP-92 NSCLC
[51] = tested on: ACHN renal
[52] = tested on: T-47D breast
[53] = tested on: A498 renal
[54] = tested on: K-562 leukemia
[55] = tested on: HCT-15 colon
[56] = tested on: HCC-2998 colon
[57] = tested on: NCI-H23 lung
[58] = tested on: LOX IMVI melanoma

Structure (SMILES): N#Cc1c(NC(=O)c2ccc(C(O)(C(F)(F)F)C(F)(F)F)cc2)sc2c1CCC(=O)C2
- GI50 [1]: 1.77 µM
- TGI [1]: 5.55 µM
- GI50 [2]: 0.422 µM
- TGI [2]: 1.78 µM
- GI50 [3]: 2.65 µM
- TGI [3]: 8.4 µM
- GI50 [4]: 0.466 µM
- TGI [4]: 5.29 µM
- GI50 [5]: 3.53 µM
- TGI [5]: 13.1 µM
- GI50 [6]: 2.38 µM
- TGI [6]: 8.7 µM
- GI50 [7]: 1.39 µM
- TGI [7]: 2.81 µM
- GI50 [8]: 0.641 µM
- TGI [8]: 1.94 µM
- GI50 [9]: 1.58 µM
- TGI [9]: 2.93 µM
- GI50 [10]: 0.616 µM
- TGI [10]: 2.53 µM
- GI50 [11]: 1.29 µM
- TGI [11]: 3.33 µM
- GI50 [12]: 1.47 µM
- TGI [12]: 2.93 µM
- GI50 [13]: 2.27 µM
- TGI [13]: 6.78 µM
- GI50 [14]: 1.83 µM
- TGI [14]: 4.1 µM
- GI50 [15]: 1.13 µM
- TGI [15]: 2.89 µM
- GI50 [16]: 0.995 µM
- TGI [16]: 2.66 µM
- GI50 [17]: 2.01 µM
- TGI [17]: 5.67 µM
- GI50 [18]: 0.354 µM
- TGI [18]: 1.54 µM
- GI50 [19]: 0.363 µM
- TGI [19]: 1.59 µM
- GI50 [20]: 3.38 µM
- TGI [20]: 11.7 µM
- GI50 [21]: 0.478 µM
- TGI [21]: 6.44 µM
- GI50 [22]: 0.415 µM
- TGI [22]: > 100 µM
- GI50 [23]: 1.23 µM
- TGI [23]: 2.53 µM
- GI50 [24]: 2.14 µM
- TGI [24]: 4.36 µM
- GI50 [25]: 1.46 µM
- TGI [25]: 3.32 µM
- GI50 [26]: 2.75 µM
- TGI [26]: 12.6 µM
- GI50 [27]: 0.465 µM
- TGI [27]: 1.8 µM
- GI50 [28]: 2.13 µM
- TGI [28]: 5.24 µM
- GI50 [29]: 0.434 µM
- TGI [29]: > 100 µM
- GI50 [30]: 2.27 µM
- TGI [30]: 9.4 µM
- GI50 [31]: 0.546 µM
- TGI [31]: > 34.7 µM
- GI50 [32]: 0.539 µM
- TGI [32]: 1.71 µM
- GI50 [33]: 0.6 µM
- TGI [33]: 1.67 µM
- GI50 [34]: 0.933 µM
- TGI [34]: 2.71 µM
- GI50 [35]: 2.88 µM
- TGI [35]: 8.16 µM
- GI50 [36]: 0.549 µM
- TGI [36]: 2.08 µM
- GI50 [37]: 1.45 µM
- TGI [37]: 3.39 µM
- GI50 [38]: 1.93 µM
- TGI [38]: 4.18 µM
- GI50 [39]: 2.73 µM
- TGI [39]: 8.49 µM
- GI50 [40]: 2.37 µM
- TGI [40]: 7.27 µM
- GI50 [41]: 1.31 µM
- TGI [41]: 4.39 µM
- GI50 [42]: 1.81 µM
- TGI [42]: 3.86 µM
- GI50 [43]: 0.325 µM
- TGI [43]: 1.94 µM
- GI50 [44]: 1.67 µM
- TGI [44]: 3.38 µM
- GI50 [45]: 1.29 µM
- TGI [45]: 2.76 µM
- GI50 [46]: 0.739 µM
- TGI [46]: 2.77 µM
- GI50 [47]: 3.44 µM
- TGI [47]: 11.9 µM
- GI50 [48]: 0.338 µM
- TGI [48]: 7.29 µM
- GI50 [49]: 0.682 µM
- TGI [49]: 2 µM
- GI50 [50]: 0.475 µM
- TGI [50]: 1.46 µM
- GI50 [51]: 0.346 µM
- TGI [51]: 1.35 µM
- GI50 [52]: 0.496 µM
- TGI [52]: 2.33 µM
- GI50 [53]: 12.2 µM
- TGI [53]: 26.5 µM
- GI50 [54]: 0.297 µM
- TGI [54]: > 100 µM
- GI50 [55]: 1.1 µM
- TGI [55]: 2.92 µM
- GI50 [56]: 1.71 µM
- TGI [56]: 3.15 µM
- GI50 [57]: 1.14 µM
- TGI [57]: 2.78 µM
- GI50 [58]: 0.455 µM
- TGI [58]: 1.68 µM
